# Source: patent US12209081B2 (Katholieke Universiteit Leuven, priority 2020, dated 2025)
# Target: mouse TRPM3α2 (mTRPM3) ion channel (Mus musculus (Mouse), UniProt J9SQF3)
# Experiment: TRPM3 ion channel driven Ca2+ uptake, Fluo-4 AM assay, mTRPM3alpha2 overexpressing flip-in HEK293 cells stimulated with pregnenolone sulfate
# Type: cell-based
# Settings: PS (50 μM) stimulated, cpds. 500-599
# Procedure: Part B Monitoring the TRPM3 Ion Channel Driven Ca^2+ Uptake.
# In order to monitor the inhibition of the mouse TRPM3α2 (mTRPM3) ion channel by the compounds of the invention, a cellular system making use of an mTRPM3alpha2 or hTRPM3 overexpressing cell line (flip-in HEK293) was used. The TRPM3 channel was stimulated/opened with Pregnenolone sulfate (PS) (50 μM) which results in Ca^2+ influx.
# For mTRPM3, the intracellular Ca^2+ was measured with a Calcium responsive dye. Fluor-4 AM ester (Invitrogen). Cells were cultured until a confluence of 80-90%, washed with Versene (Invitrogen) and detached from the surface by a short incubation with 0.05% Trypsin (Invitrogen). The trypsination process was stopped by the addition of complete cell culture medium (DMEM, glutamax, 10% FCS,NEAA,Pen-Strep). Cells were collected and resuspended in Krebs buffer without Calcium at RT.
# Prior the cell seeding (±2000 cells/well into a black, 384 well plate (Greiner)) the diluted compound was added in the assay plate, together with the PS dissolved in Krebs buffer containing Calcium. […] Directly after cell addition the plates were read on an Envision fluorescence reader (Perkin Elmer) by an Excitation of 485 nm and emission at 535 nm.
# Channel inhibition was calculated compared to a non-PS stimulated control versus a condition stimulated with PS (50 μM) with vehicle. The ability of the compounds of the invention to inhibit this activity was determined as: Percentage inhibition=[1-((RFU determined for sample with test compound present—RFU determined for sample with positive control inhibitor) divided by (RFU determined in the presence of vehicle—RFU determined for sample with positive control inhibitor))]*100.
# mouse TRPM3α2 (mTRPM3) ion channel, sequence (J9SQF3 other isoform, or with tags, fused parts or gaps): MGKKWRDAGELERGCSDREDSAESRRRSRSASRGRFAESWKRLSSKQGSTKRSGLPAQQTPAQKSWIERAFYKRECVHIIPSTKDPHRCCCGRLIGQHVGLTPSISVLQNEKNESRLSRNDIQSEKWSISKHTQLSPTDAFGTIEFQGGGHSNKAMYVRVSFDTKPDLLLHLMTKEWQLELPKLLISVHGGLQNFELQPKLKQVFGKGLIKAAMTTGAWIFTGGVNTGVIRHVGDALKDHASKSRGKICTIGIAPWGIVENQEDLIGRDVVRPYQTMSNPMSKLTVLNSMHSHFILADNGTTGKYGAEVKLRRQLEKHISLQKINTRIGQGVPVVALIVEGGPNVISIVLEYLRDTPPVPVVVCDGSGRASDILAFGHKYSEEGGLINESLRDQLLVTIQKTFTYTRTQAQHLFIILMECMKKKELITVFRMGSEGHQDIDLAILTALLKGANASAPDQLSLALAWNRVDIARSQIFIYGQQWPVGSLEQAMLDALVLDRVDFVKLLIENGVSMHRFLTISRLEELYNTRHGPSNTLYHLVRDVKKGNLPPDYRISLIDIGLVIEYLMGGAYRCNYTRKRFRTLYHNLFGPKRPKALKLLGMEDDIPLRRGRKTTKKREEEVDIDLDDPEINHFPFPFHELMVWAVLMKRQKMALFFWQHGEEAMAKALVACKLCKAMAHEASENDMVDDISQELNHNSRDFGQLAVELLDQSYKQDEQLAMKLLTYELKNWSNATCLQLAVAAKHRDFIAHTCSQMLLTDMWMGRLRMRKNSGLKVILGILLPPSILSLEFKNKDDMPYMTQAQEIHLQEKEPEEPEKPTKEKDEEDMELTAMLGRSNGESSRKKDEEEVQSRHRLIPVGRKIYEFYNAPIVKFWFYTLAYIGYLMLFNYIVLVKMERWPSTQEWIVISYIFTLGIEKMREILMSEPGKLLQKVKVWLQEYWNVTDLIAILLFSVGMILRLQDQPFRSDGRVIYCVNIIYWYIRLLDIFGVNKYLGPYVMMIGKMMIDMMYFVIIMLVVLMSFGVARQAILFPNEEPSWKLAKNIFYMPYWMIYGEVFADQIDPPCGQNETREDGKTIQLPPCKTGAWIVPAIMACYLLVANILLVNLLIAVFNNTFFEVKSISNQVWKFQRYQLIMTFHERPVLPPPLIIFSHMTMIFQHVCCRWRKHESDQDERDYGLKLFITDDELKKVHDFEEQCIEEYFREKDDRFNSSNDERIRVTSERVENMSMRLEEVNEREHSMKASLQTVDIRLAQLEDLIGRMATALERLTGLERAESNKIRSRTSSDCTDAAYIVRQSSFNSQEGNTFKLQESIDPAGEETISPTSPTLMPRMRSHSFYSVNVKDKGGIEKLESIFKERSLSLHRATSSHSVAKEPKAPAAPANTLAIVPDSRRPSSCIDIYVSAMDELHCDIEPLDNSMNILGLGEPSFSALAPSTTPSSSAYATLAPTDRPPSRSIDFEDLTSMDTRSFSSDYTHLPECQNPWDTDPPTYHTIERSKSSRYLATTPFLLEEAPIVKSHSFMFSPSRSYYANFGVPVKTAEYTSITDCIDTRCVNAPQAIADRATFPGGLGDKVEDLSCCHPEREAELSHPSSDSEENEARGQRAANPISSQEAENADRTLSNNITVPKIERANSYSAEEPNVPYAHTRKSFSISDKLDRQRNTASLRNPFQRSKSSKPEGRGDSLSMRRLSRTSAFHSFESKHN
row,IC50,SMILES
1,1000 to 20000 nM,"Cc1oc2ccc(OCc3cn(C)nn3)cc2c1C(=O)NC1CCNCC1(F)F (single isomer, unassigned) [cpd 540-En 1]"
2,> 20000 nM,"Cc1oc2ccc(OCc3cn(C)nn3)cc2c1C(=O)NC1CCNCC1(F)F (single isomer, unassigned) [cpd 540-En 2]"
3,< 1000 nM,"Cc1oc2ccc(OCc3ccnn3C)cc2c1C(=O)NC1CCNCC1(F)F (single isomer, unassigned) [cpd 543-En 1]"
4,< 1000 nM,"Cc1ncccc1COc1ccc2oc(C)c(C(=O)NC3CCNCC3(F)F)c2c1 (single isomer, unassigned) [cpd 547-En 1]"
5,1000 to 20000 nM,"Cc1nccc(COc2ccc3oc(C)c(C(=O)NC4CCNCC4(F)F)c3c2)n1 (single isomer, unassigned) [cpd 548-En 1]"
6,> 20000 nM,"Cc1nccc(COc2ccc3oc(C)c(C(=O)NC4CCNCC4(F)F)c3c2)n1 (single isomer, unassigned) [cpd 548-En 2]"
7,< 1000 nM,"Cc1ncc(COc2ccc3oc(C)c(C(=O)NC4CCNCC4(F)F)c3c2)s1 (single isomer, unassigned) [cpd 549-En 1]"
8,1000 to 20000 nM,"Cc1ncc(COc2ccc3oc(C)c(C(=O)NC4CCNCC4(F)F)c3c2)s1 (single isomer, unassigned) [cpd 549-En 2]"
9,< 1000 nM,"Cc1coc(COc2ccc3oc(C)c(C(=O)NC4CCNCC4(F)F)c3c2)n1 (single isomer, unassigned) [cpd 551-En 1]"
10,1000 to 20000 nM,"Cc1coc(COc2ccc3oc(C)c(C(=O)NC4CCNCC4(F)F)c3c2)n1 (single isomer, unassigned) [cpd 551-En 2]"
11,< 1000 nM,"Cc1csc(COc2ccc3oc(C)c(C(=O)NC4CCNCC4(F)F)c3c2)n1 (single isomer, unassigned) [cpd 552-En 1]"
12,1000 to 20000 nM,"Cc1csc(COc2ccc3oc(C)c(C(=O)NC4CCNCC4(F)F)c3c2)n1 (single isomer, unassigned) [cpd 552-En 2]"
13,< 1000 nM,"Cc1cc(COc2ccc3oc(C)c(C(=O)NC4CCNCC4(F)F)c3c2)no1 (single isomer, unassigned) [cpd 553-En 1]"
14,1000 to 20000 nM,"Cc1cc(COc2ccc3oc(C)c(C(=O)NC4CCNCC4(F)F)c3c2)no1 (single isomer, unassigned) [cpd 553-En 2]"
15,< 1000 nM,"Cc1cnc(COc2ccc3oc(C)c(C(=O)NC4CCNCC4(F)F)c3c2)cn1 (single isomer, unassigned) [cpd 554-En 1]"
16,> 20000 nM,"Cc1cnc(COc2ccc3oc(C)c(C(=O)NC4CCNCC4(F)F)c3c2)cn1 (single isomer, unassigned) [cpd 554-En 2]"
17,< 1000 nM,"Cc1cnc(COc2ccc3oc(C)c(C(=O)NC4CCNCC4(F)F)c3c2)s1 (single isomer, unassigned) [cpd 555-En 1]"
18,1000 to 20000 nM,"Cc1cnc(COc2ccc3oc(C)c(C(=O)NC4CCNCC4(F)F)c3c2)s1 (single isomer, unassigned) [cpd 555-En 2]"
19,1000 to 20000 nM,"Cc1ccc(COc2ccc3oc(C)c(C(=O)NC4CCNCC4(F)F)c3c2)nn1 (single isomer, unassigned) [cpd 556-En 1]"
20,> 20000 nM,"Cc1ccc(COc2ccc3oc(C)c(C(=O)NC4CCNCC4(F)F)c3c2)nn1 (single isomer, unassigned) [cpd 556-En 2]"
21,< 1000 nM,"Cc1oc2ccc(OCc3cccnn3)cc2c1C(=O)NC1CCNCC1(F)F (single isomer, unassigned) [cpd 557-En 1]"
22,< 1000 nM,"Cc1oc2ccc(OCc3ccc(F)cn3)cc2c1C(=O)NC1CCNCC1(F)F (single isomer, unassigned) [cpd 568-En 1]"
23,1000 to 20000 nM,"Cc1oc2ccc(OCc3ccc(F)cn3)cc2c1C(=O)NC1CCNCC1(F)F (single isomer, unassigned) [cpd 568-En 2]"
24,< 1000 nM,"COc1cccc(COc2ccc3oc(C)c(C(=O)NC4CCNCC4(F)F)c3c2)n1 (single isomer, unassigned) [cpd 570-En 1]"
25,1000 to 20000 nM,"COc1cccc(COc2ccc3oc(C)c(C(=O)NC4CCNCC4(F)F)c3c2)n1 (single isomer, unassigned) [cpd 570-En 2]"

# Second part, the compound before the results:
row,SMILES,IC50
1,"Cc1oc2ccc(OCc3cccnc3C(F)(F)F)cc2c1C(=O)NC1CCNCC1(F)F (single isomer, unassigned) [cpd 539-En 1]",1000 to 20000 nM
2,"Cc1oc2ccc(OCc3cccnc3C(F)(F)F)cc2c1C(=O)NC1CCNCC1(F)F (single isomer, unassigned) [cpd 539-En 2]",< 1000 nM
3,"Cc1oc2ccc(OCc3cnnn3C)cc2c1C(=O)NC1CCNCC1(F)F (single isomer, unassigned) [cpd 541-En 1]",1000 to 20000 nM
4,"Cc1oc2ccc(OCc3cnnn3C)cc2c1C(=O)NC1CCNCC1(F)F (single isomer, unassigned) [cpd 541-En 2]",> 20000 nM
5,"Cc1oc2ccc(OCc3ncn(C)n3)cc2c1C(=O)NC1CCNCC1(F)F (single isomer, unassigned) [cpd 542-En 1]",1000 to 20000 nM
6,"Cc1oc2ccc(OCc3ncn(C)n3)cc2c1C(=O)NC1CCNCC1(F)F (single isomer, unassigned) [cpd 542-En 2]",> 20000 nM
7,"Cc1oc2ccc(OCc3cccc(=O)n3C)cc2c1C(=O)NC1CCNCC1(F)F (single isomer, unassigned) [cpd 545-En 1]",1000 to 20000 nM
8,"Cc1oc2ccc(OCc3cccnc3C(F)(F)F)cc2c1C(=O)NC1CCNCC1(F)F (single isomer, unassigned) [cpd 546-En 1]",< 1000 nM
9,"Cc1oc2ccc(OCC3(C)COC3)cc2c1C(=O)NC1CCNCC1(F)F (single isomer, unassigned) [cpd 550-En 1]",1000 to 20000 nM
10,"Cc1oc2ccc(OCc3cccnc3)cc2c1C(=O)NC1CCNCC1(F)F (single isomer, unassigned) [cpd 558-En 1]",< 1000 nM
11,"Cc1oc2ccc(OCc3ncccn3)cc2c1C(=O)NC1CCNCC1(F)F (single isomer, unassigned) [cpd 559-En 1]",1000 to 20000 nM
12,"Cc1oc2ccc(OCc3ncccn3)cc2c1C(=O)NC1CCNCC1(F)F (single isomer, unassigned) [cpd 559-En 2]",> 20000 nM
13,"Cc1oc2ccc(OCc3nccs3)cc2c1C(=O)NC1CCNCC1(F)F (single isomer, unassigned) [cpd 560-En 1]",< 1000 nM
14,"Cc1oc2ccc(OCc3nccs3)cc2c1C(=O)NC1CCNCC1(F)F (single isomer, unassigned) [cpd 560-En 2]",< 1000 nM
15,"Cc1oc2ccc(OCc3cncs3)cc2c1C(=O)NC1CCNCC1(F)F (single isomer, unassigned) [cpd 561-En 1]",< 1000 nM
16,"Cc1ncsc1COc1ccc2oc(C)c(C(=O)NC3CCNCC3(F)F)c2c1F (single isomer, unassigned) [cpd 562-En 1]",< 1000 nM
17,"Cc1nc(C)c(COc2ccc3oc(C)c(C(=O)NC4CCNCC4(F)F)c3c2)s1 (single isomer, unassigned) [cpd 563-En 1]",< 1000 nM
18,"Cc1oc2ccc(OCc3cccnc3O)cc2c1C(=O)NC1CCNCC1(F)F (single isomer, unassigned) [cpd 564-En 1]",< 1000 nM
19,"COc1ncccc1COc1ccc2oc(C)c(C(=O)NC3CCNCC3(F)F)c2c1 (single isomer, unassigned) [cpd 565-En 1]",< 1000 nM
20,"COc1ncccc1COc1ccc2oc(C)c(C(=O)NC3CCNCC3(F)F)c2c1 (single isomer, unassigned) [cpd 565-En 2]",< 1000 nM
21,"Cc1oc2ccc(OCc3ncccc3F)cc2c1C(=O)NC1CCNCC1(F)F (single isomer, unassigned) [cpd 566-En 1]",< 1000 nM
22,"Cc1oc2ccc(OCc3ncccc3F)cc2c1C(=O)NC1CCNCC1(F)F (single isomer, unassigned) [cpd 566-En 2]",1000 to 20000 nM
23,"Cc1oc2ccc(OCc3ccc(OCCO)cn3)cc2c1C(=O)NC1CCNCC1(F)F (single isomer, unassigned) [cpd 567-En 1]",> 20000 nM
24,"Cc1oc2ccc(OCc3ccc4nccn4c3)cc2c1C(=O)NC1CCNCC1(F)F (single isomer, unassigned) [cpd 571-En 1]",1000 to 20000 nM
25,"Cc1ncsc1COc1cc2c(C(=O)NC3CCNCC3(F)F)c(C)oc2cc1F (single isomer, unassigned) [cpd 572-En 1]",< 1000 nM
26,"Cc1ncsc1COc1cc(F)c2oc(C)c(C(=O)NC3CCNCC3(F)F)c2c1 (single isomer, unassigned) [cpd 573-En 1]",< 1000 nM
27,"Cc1ncsc1COc1cc(F)c2oc(C)c(C(=O)NC3CCNCC3(F)F)c2c1 (single isomer, unassigned) [cpd 573-En 2]",1000 to 20000 nM

# Same assay, conditions: PS (50 μM) stimulated, cpds. 608-666
row,IC50,SMILES
1,< 1000 nM,"Cc1oc2ccc(OCc3nccn3C)cc2c1C(=O)NC1CNCCC1(F)F (single isomer, unassigned) [cpd 635-En 1]"
2,1000 to 20000 nM,"Cc1oc2ccc(OCc3nccn3C)cc2c1C(=O)NC1CNCCC1(F)F (single isomer, unassigned) [cpd 635-En 2]"
3,< 1000 nM,"Cc1oc2ccc(OCc3ccnn3C)cc2c1C(=O)NC1CNCCC1(F)F (single isomer, unassigned) [cpd 636-En 1]"
4,< 1000 nM,"Cc1oc2ccc(OCc3cccnc3O)cc2c1C(=O)NC1CNCCC1(F)F (single isomer, unassigned) [cpd 637-En 1]"
